Measured values published in article PMC9692677, “Virtual Cocrystal Screening of Adefovir Dipivoxyl: Identification of New Solid Forms with Improved Dissolution and Permeation Profiles” (Pharmaceutics, 2022).
Converted amounts (≈) assume the structure as drawn. “And” between values parts separate entries of the source, which are not always exact repeats. Equal values may be shown once. Read-outs that look alike come from different tables or passages of the source.

Assays:
Format in all cases: physicochemical
[1] = Biphasic four-pH sector dissolution with 1-decanol lipid layer (Pion inForm); conditions: for Transfer of AD towards the organic layer (1-decanol): pH 4.0 sector
Method: The third set of measurements were performed using a Pion inForm automated titrator system from Pion (Pion-Inc., Billerica, MA, USA, www.pion-inc.com) with an incorporated UV-Vis spectrophotometer to acquire the spectrophotometric data. The optical system also consisted of a photodiode array detector with a deuterium lamp and included two fiber optic dip probes. The titrator module included a temperature controller (a Peltier device with in-situ thermocouple), pH electrode, an overhead stirrer and motorized dispensers for the automatic delivery of assay titrants and reagents via capillaries. The instrumentation was operated by inForm Control and Assay Designer software (version 1.6.0.0). The Pion inForm system was used for the biphasic dissolution studies. Samples were prepared as described previously, and studies were performed consecutively through the four different pH sectors, with the addition of a lipid layer (1-decanol) in the second sector to mimic the absorption in the GIT. The dissolution media consisted of 40 mL of aqueous solution, which was added automatically to an 80 mL dissolution vessel and brought to 25 °C (±0.1 °C). Once the media were adjusted to the starting pH and temperature, each sample was added automatically, and data collection was started from the point of sample introduction. The lipid layer (30 mL) was added in the second pH sector after the pH was adjusted to 4.0 (see Table S4 for exact experimental details). The two UV optic fiber probes each with a 10mm path length, were used on the inForm platform for quantitating the drug in the aqueous phase and in the lipid layer. Stirring of the solution was continuous at a rate of 100 rpm through the four sectors. Spectral and pH data were collected with a frequency of 30 s over a period of 2 h.
Contrary to GLpKa, which has a fixed probe with a 10 mm path length that cannot be exchangeable with different path length size tips, Pion inForm is provided with two UV probes, both with a 10 mm path length: a fixed path-length and an exchangeable path-length. These probes were used for the aqueous and the lipid media, respectively. In this way, the UV data collected for the three cocrystals could be quantified using the MECs of orcinol, resorcinol and hydroquinone. Moreover, in the inForm system a greater volume of solution is used (40 mL instead of 15 mL of water used for the GLpKa). Therefore, the signal was not saturated, and the UV spectra for the coformers and the adefovir could be distinguished between them.
In order to study dissolution under conditions that mimic in vivo conditions more closely than other systems, the final set of experiments was carried out in a biphasic dissolution system. The test consists again in a four-pH sectors experiment, but in this case, 1-decanol was added in the second sector (pH 4.0) to simulate the contact with lipidic membranes. Then, the API concentration was monitored simultaneously in both phases through two different optic fiber probes.

[2] = XRPD analysis of the tablet surface after the single-pH dissolution experiments
Method: X-ray powder diffraction (XRPD) patterns of new cocrystals of AD were measured on a PANalytical (Malvern, UK) X’Pert PRO MPD (transmission configuration with Cu Kα radiation, λ = 1.54187 Å) with a focalizing elliptic mirror and a PIXcel detector and a maximum detector’s active length of 3.347°. Transmission geometry configuration included a convergent beam with a focalizing mirror, a flat sample sandwiched between low absorbing films measuring from 1 to 40° in 2θ, a step size of 0.026° and a measuring time of 8 to 30 min at room temperature (25 °C). Capillary geometry has been used with AD–Resorcinol (Form I) placed in a glass capillary (Lindemman) 0.5 mm in diameter measuring from 2 to 70° in 2θ, with a step size of 0.013° and a total measuring time of 18 h. The powder diffractograms were indexed and the lattice parameters were refined by means of Le Bail fits by means of Dicvol04 [35], and the space group was determined from the systematic absences.
The first set of studies was performed at different pH sectors (1.5, 4.0, 5.5 and 7.4) which are typically encountered in the gastrointestinal tract (GIT), and individual dissolution rates were determined at each pH sector. To perform these experiments, disks of 3mm diameter containing 6–10 mg of the drug or cocrystal were prepared by applying a constant pressure of 0.1 ton for 2 min with a manual hydraulic tablet press (Applied Measurements Specac Ltd, Orpington UK). The tablet was placed in a holder, and only one side of the tablet was exposed to the dissolution medium. The total exposed surface area was 0.07 cm^2. A total of 1.5 mL of 0.125 M acetate–phosphate buffer at pH 1.6 was introduced into the vial without wetting the tablet surface. The instrument then automatically added 13.5 mL of 0.15 M KCl solution and adjusted the pH to the required value (see Table S2 for exact experimental details). Spectra collection started immediately after. Spectra were recorded every 30 s for 30 min. The medium was stirred at a constant rate. The solid state of the remaining disks was analyzed using XRPD.
The XRPD analysis of the tablet surface after the dissolution experiments confirms that there is some transformation of the solid form. The highest transformation occurs for AD tablets, where 20% of the initial AD (Form I) is transformed into the dihydrate. This transformation is reproducible, as deduced by the low error bars in the dissolution profiles. In the case of cocrystals, they mainly remain in its original solid form; the 5–10% of the free AD (Form I) observed in the analysis of the tablets could be the result of AD deposition during the experiments since the saturation concentration is reached very quickly, rather than a solid phase transformation in the surface of the tablet.

[3] = Dissolution in a four-pH sector sequence (pH 1.5 to 7.4, 30 min at each pH, GLpKa)
Method: A second set of experiments was performed with the same instrument. However, determinations were made in a full sequence of pHs (from 1.5 to 7.4) maintained for 30 min at each individual pH. To change the pH, KOH was added to the medium (Table S3).
Compared to the single-pH experiments, the four-pH sectors determination provides dynamic information of the dissolution behavior of the compounds along the GIT. Now, the dissolution test starts at pH 1.5, and dissolution is monitored for 30 min. Then, the pH is raised to 4.0, 5.5, and finally, 7.4, monitoring dissolution for 30 min at each pH.

[4] = Intrinsic dissolution at individual pH sectors (GLpKa, 3 mm disks, 30 min); conditions: for solubility at 30 min: acetate–phosphate buffer with KCl; for Dissolution Rate: fit of Noyes–Whitney equation; for % Dissolved at t = 30 min: single-pH sector
pKa determination = assay: pKa determination
[5] = pH 1.5, SD in parenthesis, n = 3
[6] = pH 4.0, SD in parenthesis, n = 3
[7] = pH 5.5, SD in parenthesis, n = 3
[8] = pH 7.4, SD in parenthesis, n = 3

Row | SMILES | Transfer of AD towards the organic layer (1-decanol) [1] | Final Solid Form on tablet surface after dissolution ([2]; pH 1.5) | Final Solid Form on tablet surface after dissolution ([2]; pH 4.0) | Final Solid Form on tablet surface after dissolution ([2]; pH 5.5) | Final Solid Form on tablet surface after dissolution ([2]; pH 7.4) | Dissolution Rate [4, 5] | % Dissolved at t = 30 min [4, 5] | Dissolution Rate [4, 6] | % Dissolved at t = 30 min [4, 6] | Dissolution Rate [4, 7] | % Dissolved at t = 30 min [4, 7] | Dissolution Rate [4, 8] | % Dissolved at t = 30 min [4, 8] | also measured
1 | CC(C)(C)C(=O)OCOP(=O)(COCCn1cnc2c(N)ncnc21)OCOC(=O)C(C)(C)C.Oc1ccc(O)cc1 [AD–hydroquinone cocrystal] | slightly slower |  |  |  |  |  |  |  |  |  |  |  |  | Slope of dissolution profile in the first pH sector ([1]; pH 1.5, aqueous phase): inferior slope compared to the cocrystals with resorcinol and orcinol
2 | CC(C)(C)C(=O)OCOP(=O)(COCCn1cnc2c(N)ncnc21)OCOC(=O)C(C)(C)C [AD, 9-{2-[Bis(pivaloyloxymethoxy)phosphinylmethoxy]ethyl}adenine] | even slower | Form I + AD–dihydrate (80%:20%) | Form I + AD–dihydrate (80%:20%) | Form I + AD–dihydrate (80%:20%) | Form I + AD–dihydrate (80%:20%) | 315 (4) nmols/min | 29.0 (1.0) % | 35 (4) nmols/min | 5.7% and 5.7 (0.4) % | 21 (4) nmols/min | 3.8% and 3.8 (0.6) % | 17 (2) nmols/min | 3.3% and 3.3 (0.4) % | Share of the initial solid form transformed / other form found on tablet after dissolution ([2]; XRPD of tablet surface): 20%; % of API dissolved, four-pH sector test ([3]; pH 1.5 sector): 30%; % of AD in solution, four-pH sector test ([3]; pH 4.0 sector): 25%; % of AD in solution, four-pH sector test ([3]; pH 5.5 sector): 20%; % of AD in solution, four-pH sector test ([3]; pH 7.4 sector): 20%; solubility at 30 min ([4]; aqueous buffer, thermodynamic from solid, pH 1.5, SD in parenthesis, n = 3, read-out: AD Solubility): 325 µM (≈ 163 µg/mL); solubility at 30 min ([4]; aqueous buffer, thermodynamic from solid, pH 4.0, SD in parenthesis, n = 3, read-out: AD Solubility, extrapolated (from Equation (1))): 139 µM (≈ 69.7 µg/mL); solubility at 30 min ([4]; aqueous buffer, thermodynamic from solid, pH 5.5, SD in parenthesis, n = 3, read-out: AD Solubility, extrapolated (from Equation (1))): 128 µM (≈ 64.2 µg/mL); solubility at 30 min ([4]; aqueous buffer, thermodynamic from solid, pH 7.4, SD in parenthesis, n = 3, read-out: AD Solubility, extrapolated (from Equation (1))): 123 µM (≈ 61.7 µg/mL); solubility at 30 min ([4]; pH 1.5, read-out: Solubility for AD indicated by the plateaus of the cocrystal profiles): ~300 µM (≈ 150 µg/mL); Saturation concentration of AD ([4]; rest of pH values (4.0, 5.5, 7.4), particularly pH 5.5 and 7.4): around 100 μM; pKa (pKa determination): 3.78 ± 0.05
3 | CC(C)(C)C(=O)OCOP(=O)(COCCn1cnc2c(N)ncnc21)OCOC(=O)C(C)(C)C.Oc1cccc(O)c1 [AD–Res cocrystal (Form I)] | rapid transfer of AD towards the organic layer | Cocrystal (Form I) + AD–dihydrate (95%:5%) | Cocrystal (Form I) + AD–dihydrate (95%:5%) | Cocrystal (Form I) + AD–dihydrate (95%:5%) | Cocrystal (Form I) + AD–dihydrate (95%:5%) | 1015 (6) nmols/min | 39.3 (1.3) % | 63 (2) nmols/min | 16.1 (2.0) % | 19 (1) nmols/min | 12.2 (2.0) % | 15 (1) nmols/min | 10.9 (2.7) % | 
4 | CC(C)(C)C(=O)OCOP(=O)(COCCn1cnc2c(N)ncnc21)OCOC(=O)C(C)(C)C.Cc1cc(O)cc(O)c1 [AD–Orc cocrystal] | rapid transfer of AD towards the organic layer | Cocrystal + AD–dihydrate (90%:10%) | Cocrystal + AD–dihydrate (90%:10%) | Cocrystal + AD–dihydrate (90%:10%) | Cocrystal + AD–dihydrate (90%:10%) | 626 (40) nmols/min | 39.2 (1.1) % | 147 (47) nmols/min | 14.7 (1.6) % | 17 (1) nmols/min | 10.6 (2.5) % | 17 (3) nmols/min | 13.1 (3.6) % | 
